The results in this text go back to patent publication US9688699B2, “3-(pyrimidine-2-yl)imidazo[1,2-a]pyridines” (Bayer Pharma Aktiengesellschaft, priority 2014, dated 2017).

A word on the IC50: it is the concentration that inhibits the measured activity by half.

The target of test [1] is T1, recombinant guanylate cyclase reporter cell line (Rattus norvegicus, UniProt P19686+P20595).
T1 construct: expressed in transfected cells
T1 sequence (P19686 1-690): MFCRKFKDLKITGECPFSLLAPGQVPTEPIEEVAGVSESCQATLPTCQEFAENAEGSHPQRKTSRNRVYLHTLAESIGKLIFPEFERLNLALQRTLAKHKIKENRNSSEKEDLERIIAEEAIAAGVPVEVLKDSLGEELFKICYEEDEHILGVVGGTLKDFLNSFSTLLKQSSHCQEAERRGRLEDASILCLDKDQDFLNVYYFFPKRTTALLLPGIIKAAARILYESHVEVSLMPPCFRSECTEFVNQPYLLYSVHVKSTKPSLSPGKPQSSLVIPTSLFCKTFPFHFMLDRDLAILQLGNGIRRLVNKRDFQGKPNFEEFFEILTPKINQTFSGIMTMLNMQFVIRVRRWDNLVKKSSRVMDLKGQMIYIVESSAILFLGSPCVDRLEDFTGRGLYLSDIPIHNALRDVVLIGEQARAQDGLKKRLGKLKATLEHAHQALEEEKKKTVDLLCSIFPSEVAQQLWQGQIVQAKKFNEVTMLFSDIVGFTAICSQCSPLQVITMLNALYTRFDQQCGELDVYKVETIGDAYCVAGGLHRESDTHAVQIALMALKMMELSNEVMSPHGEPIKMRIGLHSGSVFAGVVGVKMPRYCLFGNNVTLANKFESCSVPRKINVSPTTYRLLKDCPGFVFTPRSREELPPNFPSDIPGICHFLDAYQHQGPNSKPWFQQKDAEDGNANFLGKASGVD
T1 sequence (P20595 1-619): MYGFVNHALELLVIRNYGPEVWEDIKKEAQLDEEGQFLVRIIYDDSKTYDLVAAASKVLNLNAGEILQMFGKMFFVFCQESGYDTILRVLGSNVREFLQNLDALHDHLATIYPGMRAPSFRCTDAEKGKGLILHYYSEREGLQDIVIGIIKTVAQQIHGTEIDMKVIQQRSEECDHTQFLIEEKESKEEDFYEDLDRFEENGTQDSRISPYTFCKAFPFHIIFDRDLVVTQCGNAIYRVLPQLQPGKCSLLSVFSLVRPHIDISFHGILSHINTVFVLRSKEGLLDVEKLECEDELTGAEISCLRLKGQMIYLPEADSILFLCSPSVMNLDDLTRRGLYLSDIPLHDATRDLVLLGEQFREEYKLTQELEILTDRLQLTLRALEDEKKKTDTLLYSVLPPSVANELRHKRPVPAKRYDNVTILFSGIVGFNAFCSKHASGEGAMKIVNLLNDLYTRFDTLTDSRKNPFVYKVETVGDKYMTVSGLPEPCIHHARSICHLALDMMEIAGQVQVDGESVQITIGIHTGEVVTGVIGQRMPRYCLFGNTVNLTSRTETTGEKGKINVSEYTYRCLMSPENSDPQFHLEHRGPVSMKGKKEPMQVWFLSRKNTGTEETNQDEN
Briefly: Effect on a recombinant guanylate cyclase reporter cell line (B-2). The note with it: MEC = minimum effective concentration, in some cases mean values for individual determinations. It is filed as cell-based. An outline of the steps: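 Cellular guanylate cyclase activity measured in a recombinant reporter cell line expressing rat soluble guanylate cyclase subunits. Values are minimum effective concentrations (MEC), some as means of individual determinations.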

Test [2] deals with T2, human phosphodiesterase 5 (PDE 5) (Homo sapiens, UniProt O76074).
T2 construct: PDE 5 preparations are obtained from human platelets by disruption; from tissue; host or cells: human platelets (Mono Q ion exchange fractions with PDE 5 activity)
Briefly: Inhibition of human phosphodiesterase 5 (PDE 5) (B-3). The test is classed as biochemical. The note with it: PDE 5 preparation from human platelets; [8-3H] cGMP substrate, SPA; in some cases means of individual determinations. An outline of the steps: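 Enzyme partially purified from human platelets by Mono Q ion exchange; [8-3H]cGMP substrate (0.025 μCi), Tris-HCl pH 7.5 with MgCl2/EDTA, <70% conversion, 60 min at room temperature. Compounds tested at 4 to 0.0018 μM final; yttrium SPA bead read-out, IC50 from concentration–% inhibition plot.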

Where a name gives a salt, the structure may show the parent alone.

On to `Cc1nc2c(OCc3c(F)cccc3F)cccn2c1-c1nc2c(c(N3CCC[C@@H]3CO)n1)C(C)(C)C(=O)N2` [Example 37, 2-{8-[(2,6-difluorobenzyl)oxy]-2-methylimidazo[1,2-a]pyridin-3-yl}-4-[(2R)-2-(hydroxymethyl)pyrrolidin-1-yl]-5,5-dimethyl-5,7-dihydro-6H-pyrrolo[2,3-d]pyrimidin-6-one], for which the MEC in test [1] stood at 1 µM. For the same compound, the IC50 in test [2] worked out at 21 nM.
As for `Cc1nc2c(OCc3c(F)cccc3F)cccn2c1-c1nc(NCC(C)(C)N)c2c(n1)NC(=O)C2(C)C(F)(F)F` (racemic) [Example 41, rac-4-[(2-Amino-2-methylpropyl)amino]-2-{8-[(2,6-difluorobenzyl)oxy]-2-methylimidazo[1,2-a]pyridin-3-yl}-5-methyl-5-(trifluoromethyl)-5,7-dihydro-6H-pyrrolo[2,3-d]pyrimidin-6-one], the MEC in test [1] was 0.1 µM. Half-maximal inhibition in test [2] (IC50) required 1.7 nM.
`Cc1nc2c(OCc3c(F)cccc3F)cccn2c1-c1nc(C#N)c2c(n1)NC(=O)C2(C)C` [Example 48, 2-{8-[(2,6-Difluorobenzyl)oxy]-2-methylimidazo[1,2-a]pyridin-3-yl}-5,5-dimethyl-6-oxo-6,7-dihydro-5H-pyrrolo[2,3-d]pyrimidine-4-carbonitrile]: in test [1], the MEC is 1 µM. In test [2], the IC50 was 190 nM.
The like results for `Cc1nc2c(OCc3c(F)cccc3F)cccn2c1-c1nc2c(c(C(=O)NC3CC3)n1)C(C)(C)C(=O)N2` [Example 55, N-Cyclopropyl-2-{8-[(2,6-difluorobenzyl)oxy]-2-methylimidazo[1,2-a]pyridin-3-yl}-5,5-dimethyl-6-oxo-6,7-dihydro-5H-pyrrolo[2,3-d]pyrimidine-4-carboxamide] were, in that order, 0.3 µM and 4 nM.
Turning to `Cc1nc2c(OCc3c(F)cccc3F)cccn2c1-c1nnc2c(n1)NC(=O)C2(C)C` [Example 68, 3-{8-[(2,6-Difluorobenzyl)oxy]-2-methylimidazo[1,2-a]pyridin-3-yl}-7,7-dimethyl-5,7-dihydro-6H-pyrrolo[2,3-e][1,2,4]triazin-6-one], the MEC in test [1] stood at 1 µM. The same compound had an IC50 in test [2] of 260 nM.
Turning to `Cc1nc2c(OCc3c(F)cccc3F)cccn2c1-c1nc(CNS(C)(=O)=O)c2c(n1)NC(=O)C2(C)C` [Example 65, N-[(2-{8-[(2,6-Difluorobenzyl)oxy]-2-methylimidazo[1,2-a]pyridin-3-yl}-5,5-dimethyl-6-oxo-6,7-dihydro-5H-pyrrolo[2,3-d]pyrimidin-4-yl)methyl]methanesulphonamide], the MEC in test [1] was found to be 3 µM. Further, in test [2], 68 nM corresponded to half-maximal inhibition (IC50).
For `Cc1nc2c(OCc3c(F)ccc(F)c3F)cccn2c1-c1nc2c(c(C(=O)N3CCC(CO)C3)n1)C(C)(C)C(=O)N2` (racemic) [Example 63, rac-4-{[3-(hydroxymethyl)pyrrolidin-1-yl]carbonyl}-5,5-dimethyl-2-{2-methyl-8-[(2,3,6-trifluorobenzyl)oxy]imidazo[1,2-a]pyridin-3-yl}-5,7-dihydro-6H-pyrrolo[2,3-d]pyrimidin-6-one] the same measures were 3 µM and 220 nM.
The like results for `Cc1nc2c(OCc3c(F)cccc3F)cccn2c1-c1nc(N)c2c(n1)NC(=O)C2(C)C` [Example 1, 4-Amino-2-{8-[(2,6-difluorobenzyl)oxy]-2-methylimidazo[1,2-a]pyridin-3-yl}-5,5-dimethyl-5,7-dihydro-6H-pyrrolo[2,3-d]pyrimidin-6-one] were, in that order, 0.3 µM and 34 nM.
For the compound `Cc1nc2c(OCc3c(F)cccc3F)cc(Cl)cn2c1-c1nc(N)c2c(n1)NC(=O)C2(C)C` [Example 67, 4-Amino-2-{6-chloro-8-[(2,6-difluorobenzyl)oxy]-2-methylimidazo[1,2-a]pyridin-3-yl}-5,5-dimethyl-5,7-dihydro-6H-pyrrolo[2,3-d]pyrimidin-6-one], the MEC in test [1] came out at 0.03 µM. This compound returned an IC50 in test [2] of 47 nM.
The like results for `Cc1nc2c(OCc3c(F)cccc3F)cccn2c1-c1nc(NCCN2CCC(F)(F)C2)c2c(n1)NC(=O)C2(C)C` [Example 26, 2-{8-[(2,6-difluorobenzyl)oxy]-2-methylimidazo[1,2-a]pyridin-3-yl}-4-{[2-(3,3-difluoropyrrolidin-1-yl)ethyl]amino)-5,5-dimethyl-5,7-dihydro-6H-pyrrolo[2,3-d]pyrimidin-6-one] were, in that order, 3 µM and 26 nM.
For `Cc1nc2c(OCc3c(F)cccc3F)cccn2c1-c1nc(NCC(C)(C)N)c2c(n1)NC(=O)C2(C)C` [Example 12, 4-[(2-Amino-2-methylpropyl)amino]-2-{8-[(2,6-difluorobenzyl)oxy]-2-methylimidazo[1,2-a]pyridin-3-yl}-5,5-dimethyl-5,7-dihydro-6H-pyrrolo[2,3-d]pyrimidin-6-one], the MEC in test [1] came to 0.2 µM. This compound returned an IC50 in test [2] of 3.6 nM.
As for `Cc1nc2c(OCc3c(F)ccc(F)c3F)cccn2c1-c1nc2c(c(C(=O)N3CC(N)C(F)(F)C3)n1)C(C)(C)C(=O)N2` (racemic) [Example 61, rac-4-[(4-amino-3,3-difluoropyrrolidin-1-yl)carbonyl]-5,5-dimethyl-2-{2-methyl-8-[(2,3,6-trifluorobenzyl)oxy]imidazo[1,2-a]pyridin-3-yl}-5,7-dihydro-6H-pyrrolo[2,3-d]pyrimidin-6-one trifluoroacetate], the MEC in test [1] is 3 µM. For the same compound, half-maximal inhibition in test [2] (IC50) was put at 730 nM.
For `Cc1nc2c(OCc3c(F)cccc3F)cccn2c1-c1nc(NCC(N)C(F)(F)C(F)F)c2c(n1)NC(=O)C2(C)C` (racemic) [Example 27, rac-4-[(2-amino-3,3,4,4-tetrafluorobutyl)amino]-2-{8-[(2,6-difluorobenzyl)oxy]-2-methylimidazo[1,2-a]pyridin-3-yl}-5,5-dimethyl-5,7-dihydro-6H-pyrrolo[2,3-d]pyrimidin-6-one], the MEC in test [1] was 3 µM. In test [2], this compound gave an IC50 of 23 nM.
Consider `COCC(C)(N)CNc1nc(-c2c(C)nc3c(OCc4c(F)cccc4F)cccn23)nc2c1C(C)(C)C(=O)N2` (racemic) [Example 21, rac-4-[(2-amino-3-methoxy-2-methylpropyl)amino]-2-{8-[(2,6-difluorobenzyl)oxy]-2-methylimidazo[1,2-a]pyridin-3-yl}-5,5-dimethyl-5,7-dihydro-6H-pyrrolo[2,3-d]pyrimidin-6-one], for which, in test [1], the MEC was determined as 0.3 µM. The compound further displayed an IC50 in test [2] of 22 nM.
The like results for `Cc1nc2c(OCc3c(F)cccc3F)cccn2c1-c1nc(NC[C@H](O)CO)c2c(n1)NC(=O)C2(C)C` [Example 22, 2-{8-[(2,6-difluorobenzyl)oxy]-2-methylimidazo[1,2-a]pyridin-3-yl}-4-{[(2S)-2,3-dihydroxypropyl]amino}-5,5-dimethyl-5,7-dihydro-6H-pyrrolo[2,3-d]pyrimidin-6-one] were, in that order, 3 µM and 3.9 nM.
